Experimental data from the CheMixHub viscosity set.

Experiment: xn = mol fraction of the nth substance listed
Conditions: 101 kPa

C1CCCC1 + CC(C)CCO
viscosity [mPa·s]
Conditions | 298.15 K | 308.15 K
x1 = 0.0443 | 3.482 | 2.238
x1 = 0.0808 | 3.173 | 2.06
x1 = 0.1182 | 2.966 | 1.962
x1 = 0.2087 | 2.37 | 1.573
x1 = 0.3063 | 1.857 | 1.278
x1 = 0.3959 | 1.511 | 1.09
x1 = 0.521 | 1.086 | 0.7741
x1 = 0.616 | 0.8169 | 0.6771
x1 = 0.7042 | 0.6669 | 0.5329
x1 = 0.8044 | 0.5675 | 0.4453
x1 = 0.8984 | 0.4649 | 0.3966
x1 = 0.9358 | 0.4361 | 0.3784
x2 = 0.0075 | 0.4035 | 0.353

C1CCCC1 + CC(C)CO
viscosity [mPa·s]
Conditions | 298.15 K | 308.15 K
x1 = 0.0603 | 2.848 | 1.934
x1 = 0.1025 | 2.58 | 1.68
x1 = 0.1812 | 2.236 | 1.478
x1 = 0.2538 | 1.84 | 1.237
x1 = 0.3617 | 1.355 | 0.9824
x1 = 0.4947 | 0.9586 | 0.7014
x1 = 0.5816 | 0.8054 | 0.6185
x1 = 0.6617 | 0.6549 | 0.5283
x1 = 0.7863 | 0.5622 | 0.4429
x1 = 0.8809 | 0.4552 | 0.3863
x1 = 0.9205 | 0.4381 | 0.3695
x1 = 0.9474 | 0.4233 | 0.3609

C1CCCC1 + CC(C)O
Conditions | viscosity [mPa·s]
298.15 K, x1 = 0.0779 | 1.686
298.15 K, x1 = 0.1506 | 1.405
298.15 K, x1 = 0.1861 | 1.302
298.15 K, x1 = 0.2303 | 1.179
298.15 K, x1 = 0.26 | 1.129
298.15 K, x1 = 0.3112 | 1.009
298.15 K, x1 = 0.3879 | 0.8567
298.15 K, x1 = 0.4568 | 0.7573
298.15 K, x1 = 0.5489 | 0.6423
298.15 K, x1 = 0.6378 | 0.5548
298.15 K, x1 = 0.7196 | 0.5314
298.15 K, x1 = 0.8237 | 0.455
298.15 K, x1 = 0.9124 | 0.4265
308.15 K, x1 = 0.0365 | 1.373
308.15 K, x1 = 0.081 | 1.28
308.15 K, x1 = 0.1332 | 1.125
308.15 K, x1 = 0.1521 | 1.101
308.15 K, x1 = 0.1757 | 1.034
308.15 K, x1 = 0.1856 | 1.015
308.15 K, x1 = 0.2382 | 0.9575
308.15 K, x1 = 0.2694 | 0.9099
308.15 K, x1 = 0.3483 | 0.7902
308.15 K, x1 = 0.3863 | 0.7261
308.15 K, x1 = 0.4288 | 0.6806
308.15 K, x1 = 0.478 | 0.6312
308.15 K, x1 = 0.5296 | 0.5689
308.15 K, x1 = 0.5891 | 0.5186
308.15 K, x1 = 0.6269 | 0.4877
308.15 K, x1 = 0.6889 | 0.4468
308.15 K, x1 = 0.7 | 0.4437
308.15 K, x1 = 0.7248 | 0.4309
308.15 K, x1 = 0.7619 | 0.4179
308.15 K, x1 = 0.98 | 0.3745
308.15 K, x2 = 0.0108 | 0.3641

CN1CCCC1=O + CC(C)O
298.15 K
Conditions | viscosity [mPa·s]
x1 = 0.0609 | 1.8
x1 = 0.1034 | 1.703
x1 = 0.1399 | 1.641
x1 = 0.1993 | 1.57
x1 = 0.2332 | 1.539
x1 = 0.3074 | 1.5
x1 = 0.3626 | 1.454
x1 = 0.4127 | 1.45
x1 = 0.4612 | 1.481
x1 = 0.5022 | 1.488
x1 = 0.5599 | 1.497
x1 = 0.6107 | 1.511
x1 = 0.6683 | 1.53
x1 = 0.7081 | 1.543
x1 = 0.7567 | 1.561
x1 = 0.794 | 1.579
x1 = 0.8562 | 1.608
x1 = 0.9199 | 1.633

OCc1ccccc1 + CC(C)O
viscosity [mPa·s]
Conditions | x1 = 0.076 | x1 = 0.1562 | x1 = 0.2409 | x1 = 0.3305 | x1 = 0.4254 | x1 = 0.5262 | x1 = 0.6334 | x1 = 0.7476 | x1 = 0.8695
298.15 K | 2.033 | 2.167 | 2.366 | 2.607 | 2.88 | 3.203 | 3.57 | 3.975 | 4.423
303.15 K | 1.776 | 1.896 | 2.06 | 2.258 | 2.486 | 2.756 | 3.06 | 3.4 | 3.785
308.15 K | 1.532 | 1.649 | 1.796 | 1.975 | 2.172 | 2.406 | 2.675 | 2.975 | 3.304
313.15 K | 1.338 | 1.432 | 1.556 | 1.701 | 1.87 | 2.07 | 2.303 | 2.557 | 2.828
